Assay results from ChEMBL document CHEMBL4725372, “Rational Design of Suprastat: A Novel Selective Histone Deacetylase 6 Inhibitor with the Ability to Potentiate Immunotherapy in Melanoma Models” (J Med Chem, 2020).
Activity calls are given as the source filed them. No cut-off for these calls is given here.

What was measured:
[1] = tested on: HEK293; test: Selectivity index, ratio of IC50 for human HDAC8 expressed in HEK293/T17 cells (unknown origin) to human HDAC6 expressed in HEK293/T17 cells; assay type: cell-based
[2] = Half life in PBS by LC-MS/MS analysis; assay type: physicochemical
[3] = tested on: Mus musculus; test: Immunomodulatory activity in C57BL/6 mouse harboring mouse SM1 cells assessed as increase in natural killer cells at 25 mg/kg, ip dosed 5 days per week before by flow cytometry; assay type: functional, organism-based; settings: time 5.0 day/week

half-life [2]: > 24 h
Compound: NCc1ccc(NC(=O)N(CCCCO)Cc2ccc(C(=O)NO)cc2)cc1
Ratio IC50 [1]: 1250
Activity [3]: Active
